Assay results as given in article PMC10722324 (Heliyon, 2023).

Columns and labels:
[1] = tested on: differentiated SH-SY5Y cells; assay: Toxicity screening on differentiated SH-SY5Y cells; assay type: cell-based, human; settings: MTT, mean ± SD (n = 5)
[2] = biological target: BuChE (Homo sapiens, UniProt P06276); assay: biochemical
[3] = biological target: Aβ1–42 (Homo sapiens, UniProt P05067); assay: biochemical; settings: Aβ aggregation (IC50), Aβ1-42, ThT, 37 °C 48 h, compounds 0–200 μM
Sequence of Aβ1–42 (P05067 672-713): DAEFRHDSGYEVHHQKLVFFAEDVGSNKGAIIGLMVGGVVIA

Sequence of BuChE (P06276 29-602): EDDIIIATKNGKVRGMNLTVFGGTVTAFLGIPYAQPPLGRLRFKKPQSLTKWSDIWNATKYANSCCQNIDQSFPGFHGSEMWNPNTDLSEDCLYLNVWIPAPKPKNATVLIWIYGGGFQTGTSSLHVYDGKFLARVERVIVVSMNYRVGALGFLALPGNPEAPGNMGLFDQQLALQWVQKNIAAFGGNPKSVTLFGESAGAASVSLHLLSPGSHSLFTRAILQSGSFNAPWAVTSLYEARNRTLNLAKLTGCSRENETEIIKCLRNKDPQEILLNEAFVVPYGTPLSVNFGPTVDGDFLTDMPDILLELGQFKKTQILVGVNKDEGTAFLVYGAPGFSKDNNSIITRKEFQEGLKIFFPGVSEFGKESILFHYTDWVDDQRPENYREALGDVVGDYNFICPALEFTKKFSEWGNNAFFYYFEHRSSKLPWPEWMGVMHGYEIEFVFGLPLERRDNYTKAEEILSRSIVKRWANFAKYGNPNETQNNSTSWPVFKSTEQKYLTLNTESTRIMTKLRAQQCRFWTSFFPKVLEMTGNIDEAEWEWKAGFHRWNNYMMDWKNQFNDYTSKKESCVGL

For `COc1cc(/C=C/C(=O)CC(=O)/C=C/c2ccc(O)c(OC)c2)ccc1O` [Curcumin, reference compound], the Cell viability ([1]; 0.1 μM) was 104.1 ± 3.2 % control, the Cell viability ([1]; 1 μM) was 100.4 ± 4.6 % control and the Cell viability ([1]; 10 μM) was 100.5 ± 7.7 % control. The Cell viability ([1]; 100 μM) was 79.1 ± 3.6 % control.
With `COc1c2ccoc2cc2oc(-c3ccccc3)cc(=O)c12` [CY2, pinnatin] the IC50 [2] was 82 ± 1.3 µM, the IC50 [3] was 195 ± 3.2 µM and the Cell viability ([1]; 0.1 μM) was 96.7 ± 3.1 % control. The Cell viability ([1]; 1 μM) was 99.3 ± 4.7 % control, the Cell viability ([1]; 10 μM) was 96.1 ± 4.3 % control and the Cell viability ([1]; 100 μM) was 68.5 ± 2.2 % control.
`O=c1cc(-c2ccccc2)oc2c1ccc1occc12` [CY14, lanceolatin B] was tested, and the IC50 [3] was 106 µM, the Cell viability ([1]; 0.1 μM) was 102.4 ± 1.3 % control and the Cell viability ([1]; 1 μM) was 100.1 ± 2.6 % control. For the same compound, the Cell viability ([1]; 10 μM) was 97.4 ± 3.2 % control and the Cell viability ([1]; 100 μM) was 72.4 ± 3.4 % control.
With `COc1c(C(=O)/C=C(\O)c2ccccc2)ccc2occc12` [CY3, pongamol] the IC50 [2] was 102 ± 1.27 µM, the IC50 [3] was > 200 µM and the Cell viability ([1]; 0.1 μM) was 103.3 ± 1.4 % control. The Cell viability ([1]; 1 μM) was 103.6 ± 1.1 % control, the Cell viability ([1]; 10 μM) was 104.3 ± 3.8 % control and the Cell viability ([1]; 100 μM) was 103.1 ± 4.0 % control.
